# How the values were obtained:
# SHP2 (full length) = target: T1, SHP2 (full length) (Homo sapiens, UniProt Q06124); experiment: Phosphatase assay (PTPase assay) with DiFMUP substrate; type: biochemical; conditions: SHP2 activated with SHP2 activating peptide; DiFMUP 80 μM, 2 hours; fluorescence; read-out: IC50 (PTPase aS say)
# T1 construct: SHP2 (full length, diluted to 100 pM final concentration in reaction buffer, BPS bioscience, US); purchased BPS bioscience, US
# T1 sequence (Q06124 1-593): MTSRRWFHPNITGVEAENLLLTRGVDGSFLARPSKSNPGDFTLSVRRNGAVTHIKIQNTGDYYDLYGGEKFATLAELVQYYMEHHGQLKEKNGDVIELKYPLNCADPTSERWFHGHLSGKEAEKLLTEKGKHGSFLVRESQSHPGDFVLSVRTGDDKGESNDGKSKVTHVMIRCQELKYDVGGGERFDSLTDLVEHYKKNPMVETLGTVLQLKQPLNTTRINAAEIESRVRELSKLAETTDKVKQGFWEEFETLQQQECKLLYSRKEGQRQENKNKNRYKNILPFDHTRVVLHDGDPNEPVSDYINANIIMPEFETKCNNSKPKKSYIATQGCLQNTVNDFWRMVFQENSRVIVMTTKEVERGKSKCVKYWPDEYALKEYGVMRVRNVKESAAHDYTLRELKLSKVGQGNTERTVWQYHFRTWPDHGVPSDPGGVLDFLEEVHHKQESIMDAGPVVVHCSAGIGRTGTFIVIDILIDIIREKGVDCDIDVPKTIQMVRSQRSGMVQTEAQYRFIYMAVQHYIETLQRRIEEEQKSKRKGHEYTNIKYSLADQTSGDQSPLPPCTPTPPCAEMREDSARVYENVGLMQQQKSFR
# [1] = test system: phospho-ERK in MIA PaCa2 or H358 cells; experiment: Phospho-ERK assay (AlphaLisa); type: cell-based; conditions: 1.5 h, MIA PaCa2 or H358 cells, compound incubated 1.5 hours; read-out: IC50 (p-ERK)
SMILES,IC50 (SHP2 (full length)) [nM],IC50 [1] [nM]
"C[C@@H]1OCC2(CCN(c3cnc(Sc4ccc5ncn(Cc6nc7ccccc7[nH]6)c(=O)c5c4Cl)cn3)CC2)[C@@H]1N [Example 37, 3-((1H-benzo[d]imidazol-2-yl)methyl)-6-((5-((3S,4S)-4-amino-3-methyl-2-oxa-8-azaspiro[4.5]decan-8-yl)pyrazin-2-yl)thio)-5-chloroquinazolin-4(3H)-one]",< 3,< 45
"C[C@@H]1OCC2(CCN(c3cnc(Sc4ccc5ncn(Cc6ccncc6)c(=O)c5c4Cl)cn3)CC2)[C@@H]1N [Example 39, 6-((5-((3S,4S)-4-amino-3-methyl-2-oxa-8-azaspiro[4.5]decan-8-yl)pyrazin-2-yl)thio)-5-chloro-3-(pyridin-4-ylmethyl)quinazolin-4(3H)-one]",3 to 100,45 to 1500
"C[C@@H]1OCC2(CCN(c3cnc(Sc4ccc5ncn(Cc6ccc7cc[nH]c7n6)c(=O)c5c4Cl)cn3)CC2)[C@@H]1N [Example 42, 3-((1H-pyrrolo[2,3-b]pyridin-6-yl)methyl)-6-((5-((3S,4S)-4-amino-3-methyl-2-oxa-8-azaspiro[4.5]decan-8-yl)pyrazin-2-yl)thio)-5-chloroquinazolin-4(3H)-one]",< 3,< 45
"C[C@@H]1OCC2(CCN(c3cnc(Sc4ccc5ncn(Cc6ccccc6F)c(=O)c5c4Cl)cn3)CC2)[C@@H]1N [Example 43, 6-((5-((3S,4S)-4-amino-3-methyl-2-oxa-8-azaspiro[4.5]decan-8-yl)pyrazin-2-yl)thio)-5-chloro-3-(2-fluorobenzyl)quinazolin-4(3H)-one]",< 3,< 45
"C[C@@H]1OCC2(CCN(c3cnc(Sc4ccc5ncn(Cc6ccncn6)c(=O)c5c4Cl)cn3)CC2)[C@@H]1N [Example 45, 6-((5-((3S,4S)-4-amino-3-methyl-2-oxa-8-azaspiro[4.5]decan-8-yl)pyrazin-2-yl)thio)-5-chloro-3-(pyrimidin-4-ylmethyl)quinazolin-4(3H)-one]",< 3,< 45
"C[C@@H]1OCC2(CCN(c3cnc(Sc4ccc5ncn(Cc6nc7ccccc7o6)c(=O)c5c4Cl)cn3)CC2)[C@@H]1N [Example 47, 6-((5-((3S,4S)-4-amino-3-methyl-2-oxa-8-azaspiro[4.5]decan-8-yl)pyrazin-2-yl)thio)-3-(benzooxazol-2-ylmethyl)-5-chloroquinazolin-4(3H)-one]",< 3,< 45
"C[C@@H]1OCC2(CCN(c3cnc(Sc4ccc5ncn(Cc6ccc(N)nc6)c(=O)c5c4Cl)cn3)CC2)[C@@H]1N [Example 48, 6-((5-((3S,4S)-4-amino-3-methyl-2-oxa-8-azaspiro[4.5]decan-8-yl)pyrazin-2-yl)thio)-3-((6-aminopyridin-3-yl)methyl)-5-chloroquinazolin-4(3H)-one]",< 3,< 45
"C[C@@H]1OCC2(CCN(c3cnc(Sc4ccc5ncn(-c6ccccc6)c(=O)c5c4Cl)cn3)CC2)[C@@H]1N [Example 51, 6-((5-((3S,4S)-4-amino-3-methyl-2-oxa-8-azaspiro[4.5]decan-8-yl)pyrazin-2-yl)thio)-5-chloro-3-phenylquinazolin-4(3H)-one]",< 3,45 to 1500
"C[C@@H]1OCC2(CCN(c3cnc(Sc4ccc5ncn(Cc6ccnc(Cl)c6)c(=O)c5c4Cl)cn3)CC2)[C@@H]1N [Example 60, 6-((5-((3S,4S)-4-amino-3-methyl-2-oxa-8-azaspiro[4.5]decan-8-yl)pyrazin-2-yl)thio)-5-chloro-3-((2-chloropyridin-4-yl)methyl)quinazolin-4(3H)-one]",< 3,< 45
"C[C@@H]1OCC2(CCN(c3cnc(Sc4ccc5ncn(CC6CCOC6)c(=O)c5c4Cl)cn3)CC2)[C@@H]1N (stereo partly drawn) [Example 61, 6-((5-((3S,4S)-4-amino-3-methyl-2-oxa-8-azaspiro[4.5]decan-8-yl)pyrazin-2-yl)thio)-5-chloro-3-((tetrahydrofuran-3-yl)methyl)quinazolin-4(3H)-one]",< 3,< 45
"C[C@@H]1OCC2(CCN(c3cnc(Sc4ccc5ncn(CC6CCCO6)c(=O)c5c4Cl)cn3)CC2)[C@@H]1N (stereo partly drawn) [Example 62, 6-((5-((3S,4S)-4-amino-3-methyl-2-oxa-8-azaspiro[4.5]decan-8-yl)pyrazin-2-yl)thio)-5-chloro-3-((tetrahydrofuran-2-yl)methyl)quinazolin-4(3H)-one]",< 3,< 45

# The next lines start with the values.
IC50 (SHP2 (full length)) [nM],IC50 [1] [nM],SMILES
< 3,45 to 1500,"C[C@@H]1OCC2(CCN(c3cnc(Sc4ccc5ncn(Cc6ccc(F)cc6)c(=O)c5c4Cl)cn3)CC2)[C@@H]1N [Example 40, 6-((5-((3S,4S)-4-amino-3-methyl-2-oxa-8-azaspiro[4.5]decan-8-yl)pyrazin-2-yl)thio)-5-chloro-3-(4-fluorobenzyl)quinazolin-4(3H)-one]"
< 3,< 45,"COc1ccc(Cn2cnc3ccc(Sc4cnc(N5CCC6(CC5)CO[C@@H](C)[C@H]6N)cn4)c(Cl)c3c2=O)cc1 [Example 41, 6-((5-((3S,4S)-4-amino-3-methyl-2-oxa-8-azaspiro[4.5]decan-8-yl)pyrazin-2-yl)thio)-5-chloro-3-(4-methoxybenzyl)quinazolin-4(3H)-one]"
< 3,< 45,"C[C@@H]1OCC2(CCN(c3cnc(Sc4ccc5ncn(Cc6cnccn6)c(=O)c5c4Cl)cn3)CC2)[C@@H]1N [Example 44, 6-((5-((3S,4S)-4-amino-3-methyl-2-oxa-8-azaspiro[4.5]decan-8-yl)pyrazin-2-yl)thio)-5-chloro-3-(pyrazin-2-ylmethyl)quinazolin-4(3H)-one]"
3 to 100,< 45,"C[C@@H]1OCC2(CCN(c3cnc(Sc4ccc5ncn(Cc6cncnc6)c(=O)c5c4Cl)cn3)CC2)[C@@H]1N [Example 46, 6-((5-((3S,4S)-4-amino-3-methyl-2-oxa-8-azaspiro[4.5]decan-8-yl)pyrazin-2-yl)thio)-5-chloro-3-(pyrimidin-5-ylmethyl)quinazolin-4(3H)-one]"
3 to 100,> 1500,"C[C@@H]1OCC2(CCN(c3cnc(Sc4ccc5nn(Cc6ccccc6)cc5c4Cl)cn3)CC2)[C@@H]1N [Example 49, (3S,4S)-8-(5-((2-benzyl-4-chloro-2H-indazol-5-yl)thio)pyrazin-2-yl)-3-methyl-2-oxa-8-azaspiro[4.5]decan-4-amine]"
3 to 100,45 to 1500,"C[C@@H]1OCC2(CCN(c3cnc(Sc4ccc5nc(Cc6ccccc6)[nH]c5c4Cl)cn3)CC2)[C@@H]1N [Example 50, (3S,4S)-8-(5-((2-benzyl-7-chloro-1H-benzo[d]imidazol-6-yl)thio)pyrazin-2-yl)-3-methyl-2-oxa-8-azaspiro[4.5]decan-4-amine]"
3 to 100,45 to 1500,"C[C@@H]1OCC2(CCN(c3cnc(Sc4ccc5ncn(Cc6cccnc6N)c(=O)c5c4Cl)cn3)CC2)[C@@H]1N [Example 52, 6-((5-((3S,4S)-4-amino-3-methyl-2-oxa-8-azaspiro[4.5]decan-8-yl)pyrazin-2-yl)thio)-3-((2-aminopyridin-3-yl)methyl)-5-chloroquinazolin-4(3H)-one]"
3 to 100,< 45,"C[C@@H]1OCC2(CCN(c3cnc(Sc4ccc5ncn(Cc6ccn(C)n6)c(=O)c5c4Cl)cn3)CC2)[C@@H]1N [Example 53, 6-((5-((3S,4S)-4-amino-3-methyl-2-oxa-8-azaspiro[4.5]decan-8-yl)pyrazin-2-yl)thio)-5-chloro-3-((1-methyl-1H-pyrazol-3-yl)methyl)quinazolin-4(3H)-one]"

# From patent US12029739B2, “SHP2 inhibitor and use thereof” (KANAPH THERAPEUTICS INC., priority 2021, dated 2024)
